pIC50: −log10 of the molar value. Structures can show the parent of a compound that is named as a salt. Where two headings read alike, the source gives them in different places.

One data set concerns the target Nav1.6 (Homo sapiens (Human), UniProt Q9UQD0). The experiment in a line: Sodium Influx Assay (Flux), Nav1.6. The class given is cell-based. The conditions noted are these: Trex HEK293 cells, ANG2 dye, inactivated state.
The next data set addresses Nav1.1 (Homo sapiens (Human), UniProt P35498). The experiment in a line: Sodium Influx Assay (Flux), Nav1.1. The class given is cell-based. The conditions noted are these: Trex HEK293 cells, ANG2 dye, inactivated state.
Another data set addresses Nav1.5 (Homo sapiens (Human), UniProt Q14524). The experiment in a line: Sodium Influx Assay (Flux), Nav1.5.
The mark [1] stands for this setting: read-out: Flux NaV1.5 IC50, sodium influx assay, Trex HEK293 cells, ANG2 dye, inactivated state.

Sequence of Nav1.5 (Q14524 other isoform, or with tags, fused parts or gaps): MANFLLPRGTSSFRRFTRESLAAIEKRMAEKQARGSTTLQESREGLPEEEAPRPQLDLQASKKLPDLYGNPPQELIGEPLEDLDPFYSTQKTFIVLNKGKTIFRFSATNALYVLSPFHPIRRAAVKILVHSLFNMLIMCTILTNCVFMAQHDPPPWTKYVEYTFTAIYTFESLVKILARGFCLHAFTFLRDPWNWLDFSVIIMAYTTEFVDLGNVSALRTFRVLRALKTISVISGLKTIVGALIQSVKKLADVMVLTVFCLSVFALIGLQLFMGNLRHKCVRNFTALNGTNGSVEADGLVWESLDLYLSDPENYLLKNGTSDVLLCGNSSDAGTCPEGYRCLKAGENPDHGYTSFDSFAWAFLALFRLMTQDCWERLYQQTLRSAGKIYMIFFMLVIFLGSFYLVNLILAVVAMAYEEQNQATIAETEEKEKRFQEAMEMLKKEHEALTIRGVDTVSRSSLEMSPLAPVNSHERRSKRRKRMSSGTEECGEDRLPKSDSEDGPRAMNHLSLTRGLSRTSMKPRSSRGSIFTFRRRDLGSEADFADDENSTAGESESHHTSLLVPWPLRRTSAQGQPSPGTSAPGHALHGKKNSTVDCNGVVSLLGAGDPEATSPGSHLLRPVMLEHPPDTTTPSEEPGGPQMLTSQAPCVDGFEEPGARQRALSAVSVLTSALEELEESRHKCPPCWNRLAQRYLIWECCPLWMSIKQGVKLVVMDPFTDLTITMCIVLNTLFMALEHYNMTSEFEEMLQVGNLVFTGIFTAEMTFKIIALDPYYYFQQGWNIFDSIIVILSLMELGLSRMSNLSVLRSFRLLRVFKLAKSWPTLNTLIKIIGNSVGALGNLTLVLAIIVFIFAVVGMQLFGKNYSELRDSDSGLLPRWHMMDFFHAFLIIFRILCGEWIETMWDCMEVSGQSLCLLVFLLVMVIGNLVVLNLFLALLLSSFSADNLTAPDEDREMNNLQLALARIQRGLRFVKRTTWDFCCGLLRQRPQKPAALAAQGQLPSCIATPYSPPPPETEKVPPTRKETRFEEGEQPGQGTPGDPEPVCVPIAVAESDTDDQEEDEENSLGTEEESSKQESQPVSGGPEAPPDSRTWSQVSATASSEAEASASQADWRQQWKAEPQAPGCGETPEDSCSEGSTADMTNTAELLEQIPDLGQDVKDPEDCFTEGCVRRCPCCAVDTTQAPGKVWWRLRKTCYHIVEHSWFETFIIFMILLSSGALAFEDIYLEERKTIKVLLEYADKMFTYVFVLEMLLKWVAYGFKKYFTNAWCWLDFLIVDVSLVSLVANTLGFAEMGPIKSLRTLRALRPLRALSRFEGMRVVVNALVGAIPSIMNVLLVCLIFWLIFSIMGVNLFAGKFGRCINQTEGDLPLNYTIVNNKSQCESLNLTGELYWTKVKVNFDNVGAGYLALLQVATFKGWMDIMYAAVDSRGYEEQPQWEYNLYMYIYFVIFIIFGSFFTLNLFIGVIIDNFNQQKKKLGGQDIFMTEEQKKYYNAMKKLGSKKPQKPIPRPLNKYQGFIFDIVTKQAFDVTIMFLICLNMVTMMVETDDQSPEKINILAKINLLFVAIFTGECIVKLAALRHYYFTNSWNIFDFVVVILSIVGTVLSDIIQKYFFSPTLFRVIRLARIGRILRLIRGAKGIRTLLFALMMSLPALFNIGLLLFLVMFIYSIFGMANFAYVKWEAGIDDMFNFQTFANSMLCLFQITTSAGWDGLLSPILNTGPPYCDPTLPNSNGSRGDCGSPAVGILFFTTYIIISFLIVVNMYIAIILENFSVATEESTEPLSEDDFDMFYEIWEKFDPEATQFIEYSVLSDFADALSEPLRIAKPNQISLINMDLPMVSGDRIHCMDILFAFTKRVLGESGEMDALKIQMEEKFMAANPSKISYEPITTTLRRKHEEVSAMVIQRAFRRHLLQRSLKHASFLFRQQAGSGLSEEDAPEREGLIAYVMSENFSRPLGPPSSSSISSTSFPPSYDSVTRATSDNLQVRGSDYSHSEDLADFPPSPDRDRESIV

One may read the pIC50 as the negative decadic logarithm of the IC50, by convention in mol/L. Take `C[C@H](Nc1ncc(S(=O)(=O)Nc2cscn2)cc1Cl)c1ccccc1F` [Example 2, (S)-5-chloro-6-((1-(2-fluorophenyl)ethyl)amino)-N-(thiazol-4-yl)pyridine-3-sulfonamide]: the negative-log IC50 (pIC50) at Nav1.6 is 4.88; on Nav1.1 it was 4.59; at Nav1.5 (setting [1]), 4.69.
For `Cc1nc(NCc2c(F)cccc2CN(C)C(C)(C)C)ccc1S(=O)(=O)Nc1cscn1` [Example 10, 6-((2-((tert-butyl(methyl)amino)methyl)-6-fluorobenzyl)amino)-2-methyl-N-(thiazol-4-yl)pyridine-3-sulfonamide formic acid salt] the same measures were 5.27, 4.63 and 5.11.
Turning to `Cc1nc(S(=O)(=O)Nc2cccc(F)n2)c(F)cc1NCc1ccccc1CN(C)C(C)(C)C` [Example 32, 5-((2-((tert-butyl(methyl)amino)methyl)benzyl)amino)-3-fluoro-N-(6-fluoropyridin-2-yl)-6-methylpyridine-2-sulfonamide trifluoroacetic acid salt], the pIC50 on Nav1.6 was 6.57; against Nav1.1, 4.78; on Nav1.5 (setting [1]), 4.52.
For `O=S(=O)(Nc1cscn1)c1ccc(NCc2c(F)cccc2CN2CCC2)nc1` [Example 5, 6-((2-(azetidin-1-ylmethyl)-6-fluorobenzyl)amino)-N-(thiazol-4-yl)pyridine-3-sulfonamide] the same measures were 5.07, 4.52 and 4.58.
In the case of `O=S(=O)(Nc1cscn1)c1ccc(NCc2c(F)ccc(F)c2CN2CCCC2)n2ccnc12` [Example 44, 5-((3,6-difluoro-2-(pyrrolidin-1-ylmethyl)benzyl)amino)-N-(thiazol-4-yl)imidazo[1,2-a]pyridine-8-sulfonamide trifluoroacetic acid salt], the results for the pIC50 against Nav1.6, against Nav1.1 and at Nav1.5 (setting [1]) were 6.77, 4.70 and 5.05, respectively.
On to `Cc1nc(S(=O)(=O)Nc2cscn2)ccc1NCc1c(F)cccc1CN(C)CC1CC1` [Example 15, 5-((2-(((cyclopropylmethyl)(methyl)amino)methyl)-6-fluorobenzyl)amino)-6-methyl-N-(thiazol-4-yl)pyridine-2-sulfonamide formic acid salt], for which the pIC50 at Nav1.6 was 6.54; on Nav1.1, 4.52; on Nav1.5 (setting [1]), 4.67.
As to `Cc1nc(NCc2c(F)cccc2CN2CCCC2)ccc1S(=O)(=O)Nc1cccc(F)n1` [Example 40, 6-((2-fluoro-6-(pyrrolidin-1-ylmethyl)benzyl)amino)-N-(6-fluoropyridin-2-yl)-2-methylpyridine-3-sulfonamide trifluoroacetic acid salt], the negative-log IC50 (pIC50) at Nav1.6 was 5.65; on Nav1.1, 5.26; at Nav1.5 (setting [1]), 5.49.
For `C[C@H](Nc1ncc(S(=O)(=O)Nc2cscn2)cc1Cl)c1cc(Cl)ccc1F` [Example 1, (S)-5-chloro-6-((1-(5-chloro-2-fluorophenyl)ethyl)amino)-N-(thiazol-4-yl)pyridine-3-sulfonamide], in that order: 5.55, 5.30 and 5.25.
For `Cc1cc(S(=O)(=O)Nc2ccsn2)ncc1NCc1c(F)cccc1CN1CCC1` [Example 12, 5-((2-(azetidin-1-ylmethyl)-6-fluorobenzyl)amino)-N-(isothiazol-3-yl)-4-methylpyridine-2-sulfonamide trifluoroacetic acid salt], in that order: 5.47, 4.52 and 4.52.
For `Cc1nc(S(=O)(=O)Nc2cscn2)c(F)cc1NCc1ccccc1CN(C)C(C)(C)C` [Example 34, 5-((2-((tert-butyl(methyl)amino)methyl)benzyl)amino)-3-fluoro-6-methyl-N-(thiazol-4-yl)pyridine-2-sulfonamide formic acid salt], the negative-log IC50 (pIC50) against Nav1.6 was 7.43; on Nav1.1, ≤ 4.52; against Nav1.5 it was ≤ 4.52.
For `Cc1nc(S(=O)(=O)Nc2ccon2)c(F)cc1NCc1ccccc1CN(C)C(C)(C)C` [Example 46, 5-((2-((tert-butyl(methyl)amino)methyl)benzyl)amino)-3-fluoro-N-(isoxazol-3-yl)-6-methylpyridine-2-sulfonamide trifluoroacetic acid salt], the pIC50 is 5.75 at Nav1.6, ≤ 4.52 at Nav1.1 and ≤ 4.52 against Nav1.5.
With `O=S(=O)(Nc1cscn1)c1ccc(NCc2c(F)cccc2CN2CCCC2)c(C(F)F)n1` [Example 18, 6-(difluoromethyl)-5-((2-fluoro-6-(pyrrolidin-1-ylmethyl)benzyl)amino)-N-(thiazol-4-yl)pyridine-2-sulfonamide formic acid salt], the pIC50 was 7.82 at Nav1.6, 4.81 against Nav1.1 and 4.67 on Nav1.5 (setting [1]).
For `Cc1c(NCc2c(F)cccc2CN(C)C(C)C)cnc(S(=O)(=O)Nc2cccc(F)n2)c1F` [Example 45, 3-fluoro-5-((2-fluoro-6-((isopropyl(methyl)amino)methyl)benzyl)amino)-N-(6-fluoropyridin-2-yl)-4-methylpyridine-2-sulfonamide], in that order: 5.72, 4.52 and 4.52.
For `Cc1nc(S(=O)(=O)Nc2cccc(F)n2)ccc1NCc1c(F)cccc1CN1CCCC1` [Example 41, 5-((2-fluoro-6-(pyrrolidin-1-ylmethyl)benzyl)amino)-N-(6-fluoropyridin-2-yl)-6-methylpyridine-2-sulfonamide trifluoroacetic acid salt], the values for the pIC50 against Nav1.6, at Nav1.1 and on Nav1.5 (setting [1]) were 7.25, 4.96 and 4.52, respectively.
Turning to `Cc1sc(S(=O)(=O)Nc2cccc(F)n2)cc1NCc1c(F)cccc1Br` [Example 23, 4-((2-bromo-6-fluorobenzyl)amino)-N-(6-fluoropyridin-2-yl)-5-methylthiophene-2-sulfonamide], the values for the pIC50 against Nav1.6, at Nav1.1 and at Nav1.5 (setting [1]) were 5.02, 5.11 and 4.52, respectively.
For `Cc1nc(S(=O)(=O)Nc2cscn2)c(F)cc1NCc1c(F)ccc(F)c1Br` [Example 36, 5-((2-bromo-3,6-difluorobenzyl)amino)-3-fluoro-6-methyl-N-(thiazol-4-yl)pyridine-2-sulfonamide trifluoroacetic acid salt] the same measures were 6.06, 6.61 and 4.52.
As for `Cc1nc(S(=O)(=O)Nc2cscn2)c(F)cc1NCc1cccc(C(F)(F)F)c1CN1C2CCC1CC2` [Example 37, 5-((2-((7-azabicyclo[2.2.1]heptan-7-yl)methyl)-3-(trifluoromethyl)benzyl)amino)-3-fluoro-6-methyl-N-(thiazol-4-yl)pyridine-2-sulfonamide trifluoroacetic acid salt], the pIC50 is 5.23 at Nav1.6, 5.06 against Nav1.1 and ≤ 4.52 against Nav1.5.
Consider `CN(Cc1cccc(F)c1CNc1ncc(S(=O)(=O)Nc2cscn2)cc1Cl)C(C)(C)C` [Example 11, 6-((2-((tert-butyl(methyl)amino)methyl)-6-fluorobenzyl)amino)-5-chloro-N-(thiazol-4-yl)pyridine-3-sulfonamide formic acid salt], for which the pIC50 at Nav1.6 was 5.08; at Nav1.1 it was 4.93; at Nav1.5 (setting [1]), 5.05.

These data come from patent publication US10981905B2, “Heteroaryl-substituted sulfonamide compounds and their use as therapeutic agents” (Xenon Pharmaceuticals Inc., priority 2018, dated 2021).
